Literature values, collected in patent US20210145797A1, “COMPOSITIONS FOR TREATING SKIN” (UNIVERSITY OF FLORIDA RESEARCH FOUNDATION, INCORPORATED, priority 2018, published 2021).

Tested on: herpes simplex
Details: topical over-the-counter treatment of herpes simplex

CCCCCCCCCCCCCCCCCCCCCCO [N-docosanol]
improvement of time of healing (4.1 days to 2.5 days): 1.5 days | time of healing (median) (from a median of 4.1 days): 2.5 days
